Experimental findings from US10238689B2, “Methods for combating bacterial infections by killing persister cells with mitomycin C and/or cisplatin” (THE PENN STATE RESEARCH FOUNDATION, priority 2015, dated 2019) are described below.

The test system of test [1] is E. coli K-12 BW25113 VBNC cultures. Description: VBNC antibiotic killing assay. The conditions noted are these: 16 h. Type of test: cell-based, Escherichia coli. How it is done: Overnight cultures (16 h) of E. coli K-12 BW25113 grown in LB were diluted 1:1000 in LB and grown to a turbidity of 3.0 at 600 nm. Cells were washed three times with 0.85% NaCl to remove nutrients and incubated in 0.85% NaCl for 32 days until the VBNC population was ˜1,000-fold higher than the culturable population. […] Samples (0.5 mL) were diluted 1:1 with LB to stimulate cellular respiration for 10 min prior to staining with 1 μL of 1 mM RedoxSensor™ Green dye and 1 μL of 20 mM propidium iodide. Samples were visualized in a hemocytometer (Hausser Scientific, Horsham, Pa., USA) using an Olympus BX61 confocal microscope (Olympus, Tokyo, Japan) at 200× magnification in order to determine viability of the VBNC population. Cell counting data was averaged from four images and experiment was performed with at least two independent cultures.

Test [2] concerns S. aureus biofilm cultures. Description: Biofilm antibiotic killing assay. Type of test: cell-based, Staphylococcus aureus. The conditions noted are these: minimal medium (modified M9-glucose), 24 h treatment, MMC 10 μg/mL, ciprofloxacin 5 μg/mL.
A further test deals with EHEC biofilm cultures. The following applies: M9-glucose, 24 h treatment, MMC 10 μg/mL, ciprofloxacin 5 μg/mL.
The test system of test [3] is E. coli K-12 biofilm cultures. Description: Biofilm antibiotic killing assay. Type of test: cell-based, Escherichia coli.
Another test has as its system EHEC infection. Type of test: in vivo, Caenorhabditis elegans. The conditions noted are these: MMC 10 μg/mL, ciprofloxacin 5 μg/mL, ampicillin 100 μg/mL, 6 h exposure; four replicates.
For test [4], the system named is E. coli K-12 ΔuvrA, ΔuvrB, and ΔuvrC mutants. Description: Planktonic killing of uvr deletion mutants. The conditions noted are these: mid-stationary phase, buffered LB. Type of test: cell-based, Escherichia coli. How it is done: (§1) In order to obtain exponential and mid-stationary phase cultures in LB, buffered LB or TSB, overnight cultures (16 h) were diluted 1:1000 in fresh medium and grown to the desired turbidity (i.e., a turbidity below 2 at 600 nm for exponential phase and a turbidity of 3 to 4 at 600 nm for mid-stationary phase). Late-stationary phase cultures in LB or buffered LB were obtained by growing overnight cultures (16 h). In order to obtain exponential and late-stationary phase cultures in M9-glucose, overnight cultures (16 h) were washed diluted 1:1000 in M9-glucose and grown for the desired period of time (i.e., a turbidity of 0.4 at 600 nm for exponential phase and 24 h of growth for late-stationary phase). Anaerobically grown cultures were maintained with ˜20% CO2, ˜79% N2, and ˜1% H2. In order to obtain rifampicin-induced persister cultures in buffered LB, overnight cultures (16 h) were diluted 1:1000 in fresh medium and grown to a turbidity of 0.8 at 600 nm. Cultures were exposed to rifampicin (100 μg/mL) for 30 min, centrifuged, and resuspended in fresh medium to remove the rifampicin.

For another test, the system named is P. aeruginosa PA14. Briefly: Planktonic antibiotic killing assay. The following applies: mid-stationary phase, rich medium; MMC 10 μg/mL, 3 h. Type of test: cell-based, Pseudomonas aeruginosa. How it is done:
as §1

Test [5] deals with S. aureus (methicillin sensitive). Description: Planktonic antibiotic killing assay. The following applies: rich medium (TSB), MMC 10 μg/mL, ciprofloxacin 5 μg/mL, 3 h. Type of test: cell-based, Staphylococcus aureus. As to the method: as §1
Test [6] has as its system enterohemorrhagic E. coli (EHEC). Briefly: Persister cell assay of pathogens (stationary phase). Type of test: cell-based, Escherichia coli. The conditions noted are these: stationary-phase cells, buffered LB; cisplatin 500 μg/mL, 5×MIC, 3 h. As to the method: (§2) For the persister cell assay of the pathogens, stationary-phase cells were used. Cultures of EHEC, P. aeruginosa, and S. aureus were prepared by a 1:1000 dilution of overnight grown cultures (LB medium for EHEC and P. aeruginosa, TSB for S. aureus) into fresh buffered LB medium for EHEC, M9-glucose for P. aeruginosa, and TSB for S. aureus and re-growing the cells to a turbidity of 3 to 4 at 600 nm for EHEC and S. aureus and growing for 24 h for P. aeruginosa. Stationary-phase cultures of EHEC (buffered LB medium), P. aeruginosa (M9-glucose medium), and S. aureus (TSB medium) were then treated with cisplatin (500 μg/mL for EHEC and S. aureus, 250 μg/mL for P. aeruginosa) for 3 h (250 mL flask, 250 rpm).

For a further test, the system named is S. aureus ATCC29213. The test is described as above. Type of test: cell-based, Staphylococcus aureus. The conditions noted are these: stationary phase cells, TSB; cisplatin 500 μg/mL, 1.7×MIC, 3 h. How it is done:
as §2

Test [7] relates to clinical strains of P. aeruginosa. Description: Persister cell assay, multi-drug resistant clinical strains. Type of test: cell-based, Pseudomonas aeruginosa. The following applies: cisplatin 100 μg/mL. As to the method:
(§3) For the persister cell assay of the pathogens, stationary-phase cells were used. Cultures of EHEC, P. aeruginosa, and S. aureus were prepared by a 1:1000 dilution of overnight grown cultures (LB medium for EHEC and P. aeruginosa, TSB for S. aureus) into fresh buffered LB medium for EHEC, M9-glucose for P. aeruginosa, and TSB for S. aureus and re-growing the cells to a turbidity of 3 to 4 at 600 nm for EHEC and S. aureus and growing for 24 h for P. aeruginosa. […]

In test [8] the test system is S. aureus clinical isolates 5B and 50F. Description: Persister cell assay, clinical isolates. Type of test: cell-based, Staphylococcus aureus. The conditions noted are these: for survival: stationary phase, 500 μg/mL of cisplatin. How it is done: as §3

Entries after “also recorded” stand apart in the source; their conditions may differ.

Consider `CO[C@@]12[C@H](COC(N)=O)C3=C(C(=O)C(C)=C(N)C3=O)N1C[C@@H]1N[C@@H]12` [MMC, mitomycin C], for which the “fold more effective at killing VBNC cells than ciprofloxacin” value in test [1] (VBNC population (RedoxSensor Green), MMC 10 μg/mL vs ciprofloxacin 5 μg/mL) was determined as 7 fold. In addition, the “survival of the culturable population” value in [1] (culturable population of VBNC cultures, MMC 10 μg/mL, ciprofloxacin 5 μg/mL) is listed as “eradicates the culturable population; also recorded: eradicating the culturable population”. In addition, the survival result in [2] is on record as “eradicating cells beyond the limit of detection”; in the test with P. aeruginosa PA14 it was 0.0038±0.0005%; in test [5] (exponential phase) it was “eradicating”; in [5] (mid-stationary phase) it was “eradicating”. For the same compound, in the test with EHEC biofilm cultures, the cells surviving result is given as “eradicated”. In addition, the “fold more susceptible to MMC than ciprofloxacin” value in test [3] (anaerobic biofilm cultures in M9-glucose) is recorded as 2,500 fold. Moreover, the “fold more cells killed than ciprofloxacin” value in test [3] (biofilms in M9-glucose, 24 h of treatment) was 100,000 fold. Besides, the “biofilm cell viability after treatment” value in [3] (biofilms in M9-glucose, MMC 10 μg/mL, 24 h) was “nearly eliminating cells”. The “survival of the EHEC-infected worms” value with EHEC infection is listed as “higher than with either ciprofloxacin or ampicillin”. Further, the “time of treatment to eradication (beyond the limit of detection)” value in test [4] is reported as “less than 30 min”.
For the compound `N.N.[Cl][Pt][Cl]` [cisplatin, cis-diamminodichloroplatinum(II)], the “cell viability after treatment” value in test [6] is given as “eradicated”; in test [8] (both clinical isolates, 800 μg/mL), “completely eradicate”. Besides, the survival came out at 0.0001±0.0001% in the test with S. aureus ATCC29213; 0.05±0.06% in test [7] (strain INP-37); 0.01±0.00% in [7] (strain INP-57M); 0.02±0.00% in [7] (strain INP-64M); 0.02±0.03% in [7] (strain RME-101); 2.5±3.5% in test [8] (isolate 5B). The survival in [8] (isolate 50F) is on record as 10±4%.
